Laboratory results published in article PMC11420244, “Evaluation of the effect of modafinil on the pharmacokinetics of encorafenib and binimetinib in patients with BRAF V600-mutant advanced solid tumors” (Cancer Chemotherapy and Pharmacology, 2024).
Read-outs that look alike come from different tables or passages of the source.

Tests used:
[1] = cited from earlier work; for Effect of Strong CYP3A Inducer on AUC (decrease): Rifampin
[2] = Reported DDI studies of CYP3A substrates with strong, moderate or weak CYP3A inducers; type: in vivo
Text: (§1) Another strategy to predict the effect strong induction may have on encorafenib PK, or the PK of other CYP3A substrates, but with fewer assumptions was proposed in a review by Molenaar-Kuijsten et al.. Based on a review of 12 approved oral anticancer drugs primarily metabolized by CYP3A, if no clinical DDI data were available for moderate inducers, an effect of 50% compared to strong inducers could be assumed. After expanding the dataset of Molenaar-Kuijsten to include 3 additional approved oral anti-cancer drugs (fuzuloparib, pirtobrutinib, and fedratinib) metabolized by CYP3A, we applied this approach in the opposite direction (lack of clinical data for the effect of strong CYP3A4 inducers) given available clinical DDI data generated in this study for encorafenib (Table 3). The median ratio of the decrease for a strong inducer to a moderate inducer was 1.56 and ranged from 1.15 for cobimetinib to 2.43 for palbociclib. […] The upper end of this range is consistent with PBPK simulations conducted prior to the study, indicating encorafenib exposures would decrease by ∼ 58% in combination with rifampin (based on a model with some simplifying assumptions) and would also be consistent with the recommendations based on in vitro data to avoid strong inducers in combination with encorafenib. This approach to managing potential coadminsitration of encorafenib with a strong inducer of CYP3A is the most conservative due to lack of more precise extrapolation methods and clincial data.

[3] = Phase 1 clinical DDI study: steady-state plasma PK (noncompartmental analysis) with and without modafinil; type: in vivo, Human; conditions: for MRAUC last (metabolite ratio), Median (range) / MRC max (metabolite ratio), Median (range): metabolite to parent; for AUClast, Median (range) / Cmax, Median (range) / T1/2, Median (range) / Tmax, Median (range) / Tmax / AUC(0-t) / Cmax / half-life: plasma, patients; for Tmax / AUC(0-t) / Cmax / half-life: human; for Tmax: read-out: Tmax, Median (range)
Procedure: Encorafenib 450 mg QD and binimetinib 45 mg BID were administered starting on Day 1. Patients then received continuous treatment of 400 mg QD modafinil on Day 15 through Day 21. Blood samples for measurement of plasma concentrations of encorafenib (and its metabolite, LHY746) and binimetinib (and its active metabolite, AR00426032), were collected at 0, 1, 2, 3, 4, 6 and 8 h post dose on Day 14 and Day 21.
Human PK plasma samples were analyzed for quantitation of all PK analytes at PPD (Middleton, Wisconsin, US) using validated, sensitive, and specific HPLC/MS/MS methods in compliance with laboratory SOPs.
PK parameters including, but not limited to, Cmax and AUClast were calculated for each participant using noncompartmental analysis (NCA) methods using the WinNonlin software package (Phoenix WinNonlin Professional, version 8.0 Pharsight Corporation, Mountain View, California) for PK analytes including encorafenib and its metabolite LHY746, and binimetinib and its metabolite AR00426032.
All patients who received at least one dose of any study drug were included in the Safety Set population. The Evaluable PK Set included all patients with sufficient concentration data to calculate at least one PK parameter for encorafenib and binimetinib on Days 14 and 21. Patients who discontinued, missed 3 or more consecutive doses of encorafenib prior to completion of the last PK sampling on Day 14, or required a dose reduction of encorafenib prior to completion of the last PK sampling on Day 14 were excluded from the Evaluable PK set. In addition, patients who missed any dose of study drugs on any of the PK days, or who vomited within 4 h after dosing on any of the PK days were excluded from Evaluable PK set.
An analysis of variance (ANOVA) was performed on the natural log (ln)-transformed Cmax and AUClast of encorafenib, LHY746, binimetinib, and AR00426032. The least squares means (LSM) geometric mean ratio (GMR) and associated 90% confidence interval (CI) for each PK parameter were calculated using the exponentiation of the difference between treatment LSM from the analyses on the ln-transformed parameters and expressed as a percentage of Day 21 relative to Day 14.

[4] = cited from earlier work
[5] = cited from earlier work; remark: listed apart in the source
CYP2C19 = conditions: cited from earlier work
[6] = design: method as in PMID 28611198; conditions: cited from earlier work
[7] = Extrapolation of strong CYP3A inducer effect on encorafenib from the moderate inducer effect (strong/moderate ratio approach); conditions: extrapolated from the modafinil effect with strong/moderate ratios 1.15 to 2.43
Text: as §1, with “This approach to managing potential coadminsitration of encorafenib with a strong inducer of CYP3A is the most conservative due to lack of more precise extrapolation methods and clincial data.” left out

[8] = design: method as in PMID 37837178; conditions: cited from earlier work
CYP3A4 = test system: CYP3A4; design: method as in earlier work; conditions: human liver microsomes; cited from earlier work
[9] = Day 14, without modafinil, steady state
[10] = Day 21 (with modafinil) relative to Day 14 (without)
[11] = Day 21, with modafinil 400 mg QD
[12] = Day 21, with modafinil 400 mg QD, steady state

## Cc1nnc2n1-c1ccc(Cl)cc1C(c1ccccc1Cl)=NC2 [triazolam]
[1]; modafinil 200 mg for 7 days followed by 400 mg for 21 days
  Decrease on mean AUCinf with modafinil: 59%

## Cc1c(C(=O)Nc2ccc(N3C[C@@H](C)O[C@@H](C)C3)nc2)cccc1-c1ccc(OC(F)(F)F)cc1 [Sonidegib]
[1]; Efavirenz
  Effect of Moderate CYP3A Inducer on AUC (decrease): ↓ 49%
[1]
  Effect of Strong CYP3A Inducer on AUC (decrease): ↓ 76.6%
[2]; ratio of AUC decreases
  Strong CYP3A Inducer Effect /Moderate CYP3A Inducer Effect: 1.56

## COc1ccc(F)cc1C(=O)NCc1ccc(-c2nn([C@@H](C)C(F)(F)F)c(N)c2C(N)=O)cc1 [Pirtobrutinib]
[1]; Efavirenz
  Effect of Moderate CYP3A Inducer on AUC (decrease): ↓ 49%
[1]
  Effect of Strong CYP3A Inducer on AUC (decrease): ↓ 71%
[2]; ratio of AUC decreases
  Strong CYP3A Inducer Effect /Moderate CYP3A Inducer Effect: 1.45

## O=C(NOCCO)c1cc2[nH]cnc2c(F)c1Nc1ccc(Br)cc1F [AR00426032]
[3]; Day 14, without modafinil
  MRAUC last (metabolite ratio), Median (range): 0.0482 (0.0182–0.138)
  MRC max (metabolite ratio), Median (range): 0.0367 (0.0165–0.0926)
[3]; [9]
  AUClast, Median (range): 127 (36.1–226) ng*hr/mL
  Cmax, Median (range): 27.5 (8.23–53.4) ng/mL
  T1/2, Median (range): 5.44 (2.57–8.86) hr
  Tmax, Median (range): 2.00 (0.88-3.00) hr
[3]; [10]
  AUClast GMR (geometric mean ratio): 0.977
  Cmax GMR (geometric mean ratio): 0.954
  MRAUClast GMR: 1.02
  MRCmax GMR: 0.950
[3]; [11]
  MRAUC last (metabolite ratio), Median (range): 0.0440 (0.0275–0.123)
  MRC max (metabolite ratio), Median (range): 0.0335 (0.0192–0.0850)
[3]; [12]
  AUClast, Median (range): 111 (70.9–197) ng*hr/mL
  Cmax, Median (range): 23.8 (13.7–40.0) ng/mL
  T1/2, Median (range): 5.75 (2.88–18.1) hr
  Tmax, Median (range): 2.00 (0.95–2.23) hr
[3]; Days 14 and 21, steady state
  Time at which mean plasma concentrations typically reach peak levels, postdose: 2 h

## C=CC(=O)Nc1cc(Nc2nccc(-c3cn(C)c4ccccc34)n2)c(OC)cc1N(C)CCN(C)C [Osimertinib]
[1]; Efavirenz
  Effect of Moderate CYP3A Inducer on AUC (decrease): ↓ 42%
[1]
  Effect of Strong CYP3A Inducer on AUC (decrease): ↓ 78.5%
[1]; listed as osimertinib
  Effect of Strong CYP3A Inducer on AUC (decrease): 87%
[2]; human, in vivo
  Strong CYP3A Inducer Effect /Moderate CYP3A Inducer Effect: 1.87

## O=C(c1cc(Cc2n[nH]c(=O)c3ccccc23)ccc1F)N1CCN(C(=O)C2CC2)CC1 [Olaparib]
[1]; Efavirenz
  Effect of Moderate CYP3A Inducer on AUC (decrease): ↓ 57.3%
[2]; ratio of AUC decreases
  Strong CYP3A Inducer Effect /Moderate CYP3A Inducer Effect: 1.38

## Cc1cc(Nc2ncc(Cl)c(Nc3ccccc3S(=O)(=O)C(C)C)n2)c(OC(C)C)cc1C1CCNCC1 [Ceritinib]
[1]; Efavirenz
  Effect of Moderate CYP3A Inducer on AUC (decrease): ↓ 43%
[1]
  Effect of Strong CYP3A Inducer on AUC (decrease): ↓ 68.5%
[2]; ratio of AUC decreases
  Strong CYP3A Inducer Effect /Moderate CYP3A Inducer Effect: 1.59

## O=C(c1cc(Cc2n[nH]c(=O)c3ccccc23)ccc1F)N1CCn2nc(C(F)(F)F)nc2C1 [Fuzuloparib]
[1]; Efavirenz
  Effect of Moderate CYP3A Inducer on AUC (decrease): ↓ 22%
[1]
  Effect of Strong CYP3A Inducer on AUC (decrease): ↓ 32%
[2]; ratio of AUC decreases
  Strong CYP3A Inducer Effect /Moderate CYP3A Inducer Effect: 1.45

## NC(=O)C[S+]([O-])C(c1ccccc1)c1ccccc1 (stereo not shown) [modafinil]
[4]
  Patients with headache (only observed AE above this frequency): > 15%

## O=C(c1ccc(F)c(F)c1Nc1ccc(I)cc1F)N1CC(O)([C@@H]2CCCCN2)C1 [Cobimetinib]
[5]; PBPK modeling
  Predicted reduction in AUC with moderate CYP3A inducer: 72%
  Predicted reduction in AUC with strong CYP3A inducer: 83%
[1]; Efavirenz
  Effect of Moderate CYP3A Inducer on AUC (decrease): ↓ 72%
[1]
  Effect of Strong CYP3A Inducer on AUC (decrease): ↓ 83%
[1]; in vivo
  Reduction in exposure in combination with weak CYP3A inducer vemurafenib: 13%
[2]; ratio of AUC decreases
  Strong CYP3A Inducer Effect /Moderate CYP3A Inducer Effect: 1.15

## CC(=O)c1c(C)c2cnc(Nc3ccc(N4CCNCC4)cn3)nc2n(C2CCCC2)c1=O [Palbociclib]
[1]; Efavirenz
  Effect of Moderate CYP3A Inducer on AUC (decrease): 38%
[1]; Modafinil
  Effect of Moderate CYP3A Inducer on AUC (decrease): 32%
[1]
  Effect of Strong CYP3A Inducer on AUC (decrease): ↓ 85.2%
[1]; mean of modafinil and efavirenz
  Effect of Moderate CYP3A Inducer on AUC (decrease), mean: ↓ 35% (mean)
[2]; ratio of AUC decreases
  Strong CYP3A Inducer Effect /Moderate CYP3A Inducer Effect: 2.43

## Cc1cnc(Nc2ccc(OCCN3CCCC3)cc2)nc1Nc1cccc(S(=O)(=O)NC(C)(C)C)c1 [Fedratinib]
[1]; Efavirenz
  Effect of Moderate CYP3A Inducer on AUC (decrease): ↓ 47%
[1]
  Effect of Strong CYP3A Inducer on AUC (decrease): ↓ 81%
[2]; ratio of AUC decreases
  Strong CYP3A Inducer Effect /Moderate CYP3A Inducer Effect: 1.72

## COC(=O)N[C@@H](C)CNc1nccc(-c2cn(C(C)C)nc2-c2cc(Cl)cc(NS(C)(=O)=O)c2F)n1 [Encorafenib, encorafenib]
CYP2C19
  Contribution of CYP2C19 to oxidative metabolism: ~16%
[6]
  Lower exposure at steady-state compared to following a single dose (auto-induction of CYP3A4): approximately 50%
[7]
  Expected reduction in AUC with a strong CYP3A inducer: 28–58%
[8]
  Increase in exposures on coadministration of moderate CYP3A4 inhibitor diltiazem: 2 fold
  Increase in exposures on coadministration of strong CYP3A inhibitor posaconazole: 3 fold
[5]; PBPK simulations conducted prior to the study
  Simulated decrease of exposures in combination with rifampin: ~58%
CYP3A4
  Contribution of CYP3A4 to total oxidative clearance: ~83%
[3]; [10]
  AUClast GMR (geometric mean ratio): 0.762
  Cmax GMR (geometric mean ratio): 0.798
[3]; Day 21 vs Day 14, modafinil 400 mg QD
  Effect of steady-state modafinil on exposure/PK (in words): weak effect
[3]; oral, Day 14, without modafinil, steady state
  Tmax: 1 h
[3]; oral, Day 21, with modafinil 400 mg QD, steady state
  Tmax: 1 h
[3]; oral, 400 mg, Day 21, with modafinil 400 mg QD, steady state, read-out: AUClast, GM (CV%)
  AUC(0-t): 9100 ng·h/mL
[3]; oral, 400 mg, Day 21, with modafinil 400 mg QD, steady state, read-out: AUClast, Median (range)
  AUC(0-t): 10000 ng·h/mL
[3]; oral, 400 mg, Day 21, with modafinil 400 mg QD, steady state, read-out: Cmax, Median (range)
  Cmax: 2750 ng/mL
[3]; oral, 400 mg, Day 21, with modafinil 400 mg QD, steady state, read-out: T1/2, GM (CV%) (converted)
  half-life: 3.57 h
[3]; oral, 400 mg, Day 21, with modafinil 400 mg QD, steady state, read-out: T1/2, Median (range) (converted)
  half-life: 3.8 h
[3]; oral, Day 14, without modafinil, steady state, read-out: AUClast, GM (CV%)
  AUC(0-t): 11900 ng·h/mL
[3]; oral, Day 14, without modafinil, steady state, read-out: AUClast, Median (range)
  AUC(0-t): 11800 ng·h/mL
[3]; oral, Day 14, without modafinil, steady state, read-out: Cmax, Median (range)
  Cmax: 3560 ng/mL
[3]; oral, Day 14, without modafinil, steady state, read-out: T1/2, GM (CV%) (converted)
  half-life: 3.48 h
[3]; oral, Day 14, without modafinil, steady state, read-out: T1/2, Median (range) (converted)
  half-life: 3.5 h
[3]; po, Day 14, without modafinil, steady state, encorafenib 450 mg QD + binimetinib 45 mg BID oral, read-out: Cmax, GM (CV%)
  Cmax: 3540 ng/mL
[3]; po, Day 21, with modafinil 400 mg QD Days 15-21, steady state, encorafenib 450 mg QD + binimetinib 45 mg BID oral, read-out: Cmax, GM (CV%)
  Cmax: 2830 ng/mL

## O=C1Nc2ccc(Cl)cc2[C@@](C#CC2CC2)(C(F)(F)F)O1 [efavirenz]
[4]
  Patients with neuropsychiatric effects: up to 70%
